One assay concerns the target β-FGF (Homo sapiens, UniProt P09038). Put plainly: ELISA for determination of binding of β-FGF to heparin. The conditions noted are these: for pIC50: inhibition of β-FGF binding to heparin, NI = no inhibition; for inhibition of β-FGF binding to heparin: inhibition towards both growth factors. The protocol:
ELISA for determination of binding of β-FGF to heparin: 96-well microplates were coated for 2 hours at 23-25° C. with 5 μg/ml heparin-albumin (Rimon Biotech) and blocked with 1% BSA in PBS, with 0.05% Tween, and 0.01% thimerosal for 2 hours. β-FGF was added to the plates at a concentration of 10 ng/ml and plates were incubated for 45 minutes at 23-25° C. The amount of β-FGF bound to heparin was detected using anti-FGF monoclonal antibody (Sigma Cat. No. F6162) at a concentration of 2.5 ng/ml and secondary antibodies Sheep anti-mouse IgG linked to horseradish peroxidase (1:3000) TMB (Pierce Cat. No. 34021) was used as a substrate for peroxidase. The plates were read at 450 nm with a reference wavelength of 630 nm using a VERSAmax plate reader.
A general note: ELISA stands for enzyme-linked immunosorbent assay.

For a further assay, the target named is T1, heparanase (H53) (Homo sapiens, UniProt Q9Y251).
T1 construct: The 45 kDa major subunit and the 8 kDa small subunit hetero-complex to form the 53 kDa active form of heparanase
T1 sequence (Q9Y251 36-109 limits assumed): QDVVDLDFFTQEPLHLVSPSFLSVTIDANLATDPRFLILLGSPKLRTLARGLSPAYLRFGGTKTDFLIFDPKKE
T1 sequence (Q9Y251 158-543 limits assumed): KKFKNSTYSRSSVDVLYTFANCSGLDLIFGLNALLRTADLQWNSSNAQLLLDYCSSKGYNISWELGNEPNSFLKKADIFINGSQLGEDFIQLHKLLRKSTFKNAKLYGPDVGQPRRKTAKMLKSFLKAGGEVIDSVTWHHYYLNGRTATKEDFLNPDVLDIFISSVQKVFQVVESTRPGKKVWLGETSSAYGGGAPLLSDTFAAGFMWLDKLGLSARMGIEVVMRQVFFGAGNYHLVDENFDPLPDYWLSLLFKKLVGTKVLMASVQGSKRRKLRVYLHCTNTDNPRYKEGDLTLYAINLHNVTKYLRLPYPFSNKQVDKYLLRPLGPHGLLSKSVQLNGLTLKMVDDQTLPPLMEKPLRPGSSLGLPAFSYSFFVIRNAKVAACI
Description: Heparanase (H53) assay (DMB assay). The assay is classed as biochemical. The protocol: Heparanase (H53) assay: The rigidified compounds described herein were tested for inhibition of heparanase activity in the DMB assay described in U.S. Pat. No. 6,190,875. IC50 was calculated from inhibition curves of all active compounds.

For assay [1], the target named is T2, vascular endothelial growth factor (VEGF) (Homo sapiens, UniProt P15692).
T2 sequence (P15692 27-191 isoform P15692-4): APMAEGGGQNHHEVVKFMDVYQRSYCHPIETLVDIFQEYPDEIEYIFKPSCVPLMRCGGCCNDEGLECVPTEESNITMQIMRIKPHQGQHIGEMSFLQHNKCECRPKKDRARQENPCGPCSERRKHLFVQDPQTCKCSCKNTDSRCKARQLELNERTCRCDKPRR
Put plainly: ELISA for determination of binding of VEGF to heparin. The conditions noted are these: for pIC50: inhibition of VEGF binding to heparin, NI = no inhibition; for inhibition of VEGF binding to heparin: inhibition towards both growth factors. The protocol: Enzyme-linked immunosorbent assay (ELISA) for determination of binding of vascular endothelial growth factor (VEGF) to heparin: 96-well microplates were coated for 2 hours. at 23-25° C. with 5 μg/ml heparin-albumin (Rimon Biotech) and blocked with 1% bovine serum albumin (BSA) in phosphate buffer (PBS) with 0.05% Tween and 0.01% thimerosal for 2 hours. VEGF was added to the plates at a concentration of 10 ng/ml and the plates were thereafter incubated for 45 minutes at 23-25° C. The amount of VEGF bound to heparin was detected using anti-VEGF monoclonal antibody (Sigma Cat. No. V4758) at a concentration of 0.26 μg/ml and secondary antibodies Sheep anti-mouse IgG linked to horseradish peroxidase (1:2000) using 3,3′,5,5′-tetramethylbenzidine (TMB, Pierce Cat. No. 34021) as a substrate for peroxidase. The plates were read at 450 nm with a reference wavelength of 630 nm using a VERSAmax plate reader. […] Percent inhibition was calculated as compared with a control pre-incubated with a solution of 1% DMSO and the results are presented in Table 3 below.

Assay [2] concerns the target T3, recombinant human pro-heparanase (H60) (Homo sapiens, UniProt Q9Y251).
T3 construct: Heparanase maturation involves the removal of the signal peptide, transforming the 65 kDa pre-pro-heparanase into a 60 kDa pro-heparanase; made in house
T3 sequence (Q9Y251 36-543): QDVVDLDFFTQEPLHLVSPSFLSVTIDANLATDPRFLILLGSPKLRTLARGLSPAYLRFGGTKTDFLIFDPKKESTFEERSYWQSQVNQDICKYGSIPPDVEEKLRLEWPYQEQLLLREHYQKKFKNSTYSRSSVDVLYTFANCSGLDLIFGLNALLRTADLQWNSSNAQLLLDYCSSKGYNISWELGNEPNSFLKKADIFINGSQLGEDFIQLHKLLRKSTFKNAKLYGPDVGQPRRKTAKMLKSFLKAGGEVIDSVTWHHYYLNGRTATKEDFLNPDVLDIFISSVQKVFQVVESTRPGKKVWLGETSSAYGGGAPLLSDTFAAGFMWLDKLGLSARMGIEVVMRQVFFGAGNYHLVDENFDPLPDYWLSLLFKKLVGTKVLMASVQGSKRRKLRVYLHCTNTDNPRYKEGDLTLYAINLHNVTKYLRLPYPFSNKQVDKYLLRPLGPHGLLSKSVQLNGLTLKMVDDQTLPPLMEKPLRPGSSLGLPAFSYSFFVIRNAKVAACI
Description: Pro-heparanase (H60) activation in a cell-based assay. The settings on record: inhibition of pro-heparanase activation in CHO cells; NI = no inhibition. As for the experimental part: Pro-heparanase (H60) activation in a cell-based assay: Chinese hamster ovary (CHO) cells were grown in complete F12 medium supplemented with 10% fetal calf serum (FCS). […] The plates were incubated for 24 hours in a 37° C. humidified incubator with 5% CO2. […] The plates were further incubated for additional 4 hours. The pro-heparanase was allowed to internalize by the cells and further processed to generate the active 53 kDa heparanase. At the end of the incubation, the cells were lysed by three consecutive cycles of freezing and thawing in a −80° C. freezer and a 37° C. shaker.
The rigidified compounds described herein were tested for inhibition of pro-heparanase activation in the cell-based assay described above.

Structures are written as SMILES. pIC50: −log10 of the molar value.

Chain of β-FGF (P09038 143-288): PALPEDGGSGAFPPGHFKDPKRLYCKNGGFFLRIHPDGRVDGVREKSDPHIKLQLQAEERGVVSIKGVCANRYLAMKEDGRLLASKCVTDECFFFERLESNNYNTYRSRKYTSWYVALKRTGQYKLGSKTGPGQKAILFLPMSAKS

`CC(C)(CC(=O)N1CCC[C@@H]1C(=O)O)CN1C(=O)c2cc3oc(-c4ccc(Cl)cc4)cc3n2C1=S` [Compound 23, 1-{4-[2-(4-Chloro-phenyl)-6-oxo-4-thioxo-6H-1-oxa-3b,5-diaza-cyclopenta[a]pentalen-5-yl]-3,3-dimethyl-butyryl}-pyrrolidine-2-carboxylic acid]: the figures for the negative-log IC50 (pIC50) (at β-FGF; in assay [1]; in assay [2]) were 5.10, 5.03 and 6.09, respectively. The “dual activity: inhibition of pro-heparanase activation (H60) and of heparanase activity (H53)” value at heparanase (H53) (compounds with an acidic group) is given as “dual activity”.

`CN(C)CCCNC(=O)CC(C)(C)CN1C(=O)c2cc3oc(-c4ccc(Cl)cc4)cc3n2C1=S` [Compound 15, 4-[2-(4-Chloro-phenyl)-6-oxo-4-thioxo-6H-1-oxa-3b,5-diaza-cyclopenta[a]pentalen-5-yl]-N-(3-dimethylamino-propyl)-3,3-dimethyl-butyramide]: at β-FGF, the pIC50 is 6.36 and the “inhibition of β-FGF binding to heparin” value is “sub-micromolar”. Besides, in assay [1], the negative-log IC50 (pIC50) was 6.74 and the “inhibition of VEGF binding to heparin” value is recorded as “sub-micromolar”. Also, the pIC50 in assay [2] is 6.80.

Consider `CCOC(=O)CCCN1C(=O)c2cc3oc(-c4cccc(C(F)(F)F)c4)cc3n2C1=S` [Compound 25, ethyl 4-[6-oxo-4-thioxo-2-(3-trifluoromethyl-phenyl)-6H-1-oxa-3b,5-diaza-cyclopenta[a]pentalen-5-yl]-butyric acid ethyl ester], for which the pIC50 at β-FGF was 6.92; in assay [1], 6.85; in assay [2] it was 5.57.

On to `CCOC(=O)CC(C)(C)CN1C(=O)c2cc3oc(-c4ccc([N+](=O)[O-])cc4)cc3n2C1=S` [Compound 7, 3,3-dimethyl-4-[2-(4-nitro-phenyl)-6-oxo-4-thioxo-6H-1-oxa-3b,5-diaza-cyclopenta[a]pentalen-5-yl]-butyric acid ethyl ester], for which, on β-FGF, the pIC50 was 7.30 and the “inhibition of β-FGF binding to heparin” value was “sub-micromolar”. In assay [1], the pIC50 was 7.00 and the “inhibition of VEGF binding to heparin” value was “sub-micromolar”. For the same compound, the pIC50 in assay [2] is 5.59.

For the compound `CCOC(=O)CC(C)(C)CN1C(=O)c2cc3oc(-c4ccc(Cl)cc4)cc3n2C1=S` [Compound 10, 4-[2-(4-Chloro-phenyl)-6-oxo-4-thioxo-6H-1-oxa-3b,5-diaza-cyclopenta[a]pentalen-5-yl]-3,3-dimethyl-butyric acid ethyl ester], on β-FGF, the pIC50 was 6.70 and the “inhibition of β-FGF binding to heparin” value is given as “sub-micromolar”. Further, in assay [1], the pIC50 is 6.77 and the “inhibition of VEGF binding to heparin” value was “sub-micromolar”. Moreover, in assay [2], the pIC50 is 5.82.

Turning to `CC(C)(CC(=O)N1CCOCC1)CN1C(=O)c2cc3oc(-c4ccc(Cl)cc4)cc3n2C1=S` [Compound 17, 2-(4-Chloro-phenyl)-5-(2,2-dimethyl-4-morpholin-4-yl-4-oxo-butyl)-4-thioxo-4,5-dihydro-1-oxa-3b,5-diaza-cyclopenta[a]pentalen-6-one], at β-FGF, the pIC50 was 6.06 and the “inhibition of β-FGF binding to heparin” value is listed as “sub-micromolar”. Also, in assay [1], the negative logarithm of the IC50 (pIC50) is 6.38 and the “inhibition of VEGF binding to heparin” value is on record as “sub-micromolar”. In assay [2], the negative-log IC50 (pIC50) is 6.82.

For the compound `COC(=O)CN(C)C(=O)CC(C)(C)CN1C(=O)c2cc3oc(-c4ccc(Cl)cc4)cc3n2C1=S` [Compound 20, ({4-[2-(4-Chloro-phenyl)-6-oxo-4-thioxo-6H-1-oxa-3b,5-diaza-cyclopenta[a]pentalen-5-yl]-3,3-dimethyl-butyryl}-methyl-amino)-acetic acid methyl ester], on β-FGF, the negative-log IC50 (pIC50) is 6.46 and the “inhibition of β-FGF binding to heparin” value is “sub-micromolar”. Moreover, in assay [1], the pIC50 was 6.38 and the “inhibition of VEGF binding to heparin” value is recorded as “sub-micromolar”. For the same compound, the pIC50 in assay [2] is 6.49.

In the case of `CC(C)(CC(=O)NCC(=O)OC(C)(C)C)CN1C(=O)c2cc3oc(-c4ccc(Cl)cc4)cc3n2C1=S` [Compound 19, {4-[2-(4-Chloro-phenyl)-6-oxo-4-thioxo-6H-1-oxa-3b,5-diaza-cyclopenta[a]pentalen-5-yl]-3,3-dimethyl-butyrylamino}-acetic acid tert-butyl ester], at β-FGF, the pIC50 is 6.30 and the “inhibition of β-FGF binding to heparin” value was “sub-micromolar”. Moreover, in assay [1], the pIC50 was 6.29 and the “inhibition of VEGF binding to heparin” value is listed as “sub-micromolar”. Also, the pIC50 in assay [2] was 6.38.

Take `CN(C)CCNC(=O)CC(C)(C)CN1C(=O)c2cc3oc(-c4ccc(Cl)cc4)cc3n2C1=S` [Compound 14, 4-[2-(4-Chloro-phenyl)-6-oxo-4-thioxo-6H-1-oxa-3b,5-diaza-cyclopenta[a]pentalen-5-yl]-N-(2-dimethylamino-ethyl)-3,3-dimethyl-butyramide]: on β-FGF, the pIC50 is 6.33 and the “inhibition of β-FGF binding to heparin” value was “sub-micromolar”. In addition, in assay [1], the pIC50 was 6.59 and the “inhibition of VEGF binding to heparin” value is listed as “sub-micromolar”. Further, the pIC50 in assay [2] is 6.92.

Consider `CC(C)(CC(=O)NCC(=O)O)CN1C(=O)c2cc3oc(-c4ccc(Cl)cc4)cc3n2C1=S` [Compound 18, {4-[2-(4-Chloro-phenyl)-6-oxo-4-thioxo-6H-1-oxa-3b,5-diaza-cyclopenta[a]pentalen-5-yl]-3,3-dimethyl-butyrylamino}-acetic acid], for which the values for the pIC50 (on β-FGF; in assay [1]; in assay [2]) were 5.85, 5.70 and 6.34, respectively.

Turning to `O=C(O)CCCN1C(=O)c2cc3sc(-c4ccc([N+](=O)[O-])cc4)cc3n2C1=S` [Compound 32, 4-[2-(4-Nitro-phenyl)-6-oxo-4-thioxo-6H-1-thia-3b,5-diaza-cyclopenta[a]pentalen-5-yl]-butyric acid], the pIC50 on heparanase (H53) (inhibition of heparanase activity, DMB assay, NI = no inhibition) is 4.57; in assay [2] it was 6.15.

The term pIC50 denotes the IC50 on a negative log10 scale, so that one unit is a factor of ten.
